Source: ChEMBL document CHEMBL1201862, “PubChem BioAssay data set” (2004)
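1) Cells in 96-well plates. 2) Compound, 48 h, 5 concentrations. 3) Linear interpolation between surrounding doses. 4) Unreached endpoint = highest concentration. Here, GI50 denotes the concentration required for 50% inhibition of growth.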 Calls of active or inactive are those of the source. No stated cut-off is given here; in the data, active = GI50 up to about 1.1 µM and inactive = higher.

Columns and labels:
Assay in all cases: NCI tumour cell line growth inhibition, 48 h
A498 = system: A498
A549 = system: A549
ACHN = system: ACHN
CAKI-1 = system: CAKI-1
DU-145 = system: DU-145
K562 = system: K562
MDA-MB-231 = system: MDA-MB-231
MDA-N = system: MDA-N
MOLT-4 = system: MOLT-4
NCI-H522 = system: NCI-H522
OVCAR-3 = system: OVCAR-3
OVCAR-4 = system: OVCAR-4
OVCAR-8 = system: OVCAR-8
PC-3 = system: PC-3
SF-295 = system: SF-295
SN12C = system: SN12C
SNB-19 = system: SNB-19
SW-620 = system: SW-620
U-251 = system: U-251

SMILES | GI50 (A498) | GI50 (A549) | GI50 (ACHN) | GI50 (CAKI-1) | GI50 (DU-145) | GI50 (K562) | GI50 (MDA-MB-231) | GI50 (MDA-N) | GI50 (MOLT-4) | GI50 (NCI-H522) | GI50 (OVCAR-3) | GI50 (OVCAR-4) | GI50 (OVCAR-8) | GI50 (PC-3) | GI50 (SF-295) | GI50 (SN12C) | GI50 (SNB-19) | GI50 (SW-620) | GI50 (U-251)
O=c1c(C(c2ccc3ccccc3c2)c2c(O)oc3ccccc3c2=O)c(O)oc2ccccc12 | 36.3 µM (inactive) | 33 µM (inactive) | 20.6 µM (inactive) | 22.9 µM (inactive) | 40.7 µM (inactive) | 50.6 µM (inactive) | 22.6 µM (inactive) | 27.4 µM (inactive) | 22.4 µM (inactive) | 17.5 µM (inactive) | 32.5 µM (inactive) | 26.7 µM (inactive) | 16.1 µM (inactive) | 34.6 µM (inactive) | 50.4 µM (inactive) | 20.6 µM (inactive) | 46.3 µM (inactive) | 31.9 µM (inactive) | 16.6 µM (inactive)
COc1ccc(C(=O)c2sc(Nc3ccc(Cl)cc3)nc2N)cc1 | 17 µM (inactive) | 6.15 µM (inactive) | 25.4 µM (inactive) | 16.4 µM (inactive) | 25 µM (inactive) | 3.82 µM (inactive) | 26.3 µM (inactive) | 2.37 µM (inactive) | 4.04 µM (inactive) | 3.89 µM (inactive) | 8.85 µM (inactive) | 12.6 µM (inactive) | 25.9 µM (inactive) | 12.1 µM (inactive) | 11.1 µM (inactive) | 21.6 µM (inactive) | 17.2 µM (inactive) | 5.71 µM (inactive) | 10.7 µM (inactive)
C1=N\CCNCC/N=C/c2ccccc2OCc2cccc(n2)COc2ccccc2/1 | > 100 µM (inactive) | > 100 µM (inactive) | 31.2 µM (inactive) | 42.8 µM (inactive) | 26.3 µM (inactive) | 4.59 µM (inactive) | 22.2 µM (inactive) | 3.18 µM (inactive) | 6.43 µM (inactive) | 27.5 µM (inactive) | 23.8 µM (inactive) | 13.7 µM (inactive) | 9.44 µM (inactive) | 19.2 µM (inactive) | 8.15 µM (inactive) | 13.2 µM (inactive) | > 22.4 µM (inactive) | 7.05 µM (inactive) | 6.32 µM (inactive)
[Se]=P(c1ccccc1)(c1ccccc1)c1ccc(C(c2ccccc2)=P(c2ccccc2)(c2ccccc2)c2ccccc2)cc1 | 2.76 µM (inactive) | 1.44 µM (inactive) | 2.44 µM (inactive) | 2.3 µM (inactive) | 1.24 µM (inactive) | 0.182 µM (active) | 0.661 µM (active) | 0.753 µM (active) | 1.32 µM (inactive) | 0.33 µM (active) | 0.621 µM (active) | 0.443 µM (active) | 0.764 µM (active) | 0.8 µM (active) | 2.27 µM (inactive) | 1.23 µM (inactive) | 1.01 µM (active) | 1.19 µM (inactive) | 0.385 µM (active)
COc1ccc2cc1Oc1ccc(cc1)C(Sc1ccccc1)CCOC(=O)CC2 (centres undefined) | > 100 µM (inactive) | > 100 µM (inactive) | > 100 µM (inactive) | > 100 µM (inactive) | > 100 µM (inactive) | 82.8 µM (inactive) | 54 µM (inactive) | > 100 µM (inactive) | > 100 µM (inactive) | > 100 µM (inactive) | > 100 µM (inactive) | > 100 µM (inactive) | > 100 µM (inactive) | > 100 µM (inactive) | > 100 µM (inactive) | > 100 µM (inactive) | > 100 µM (inactive) | > 100 µM (inactive) | > 100 µM (inactive)
BrCC[N+]12CC[N+](CCBr)(CC1)C2 | > 100 µM (inactive) | > 100 µM (inactive) | > 100 µM (inactive) | > 100 µM (inactive) | > 100 µM (inactive) | > 100 µM (inactive) | > 100 µM (inactive) | > 100 µM (inactive) | > 100 µM (inactive) | > 100 µM (inactive) | > 100 µM (inactive) | > 100 µM (inactive) | > 100 µM (inactive) | > 100 µM (inactive) | > 100 µM (inactive) | > 100 µM (inactive) | > 100 µM (inactive) | > 100 µM (inactive) | > 100 µM (inactive)
O=C(O)c1nn[nH]c1S | > 100 µM (inactive) | > 100 µM (inactive) | > 100 µM (inactive) | > 100 µM (inactive) | > 100 µM (inactive) | > 100 µM (inactive) | > 100 µM (inactive) | > 100 µM (inactive) | > 100 µM (inactive) | > 100 µM (inactive) | > 100 µM (inactive) | > 100 µM (inactive) | > 100 µM (inactive) | > 100 µM (inactive) | > 100 µM (inactive) | > 100 µM (inactive) | > 100 µM (inactive) | > 100 µM (inactive) | > 100 µM (inactive)
CN(C)CCCC12CCCCC1=Nc1ccccc12 (centres undefined) | > 100 µM (inactive) | > 100 µM (inactive) | > 100 µM (inactive) | > 100 µM (inactive) | > 100 µM (inactive) | 74 µM (inactive) | > 100 µM (inactive) | > 100 µM (inactive) | > 100 µM (inactive) | 97.7 µM (inactive) | > 100 µM (inactive) | > 100 µM (inactive) | > 100 µM (inactive) | > 100 µM (inactive) | > 100 µM (inactive) | > 100 µM (inactive) | > 100 µM (inactive) | > 100 µM (inactive) | > 100 µM (inactive)
COc1ccc(C2=NN(C(=O)c3ccc(Cl)cc3)C(O)(c3cc(F)c(Cl)cc3Cl)C2)cc1 (centres undefined) | 71.6 µM (inactive) | 49.2 µM (inactive) | > 100 µM (inactive) | 27.4 µM (inactive) | > 100 µM (inactive) | 40.6 µM (inactive) | > 100 µM (inactive) | 22.4 µM (inactive) | 12.8 µM (inactive) | > 100 µM (inactive) | > 100 µM (inactive) | 8.61 µM (inactive) | > 100 µM (inactive) | 61.9 µM (inactive) | > 100 µM (inactive) | 39.1 µM (inactive) | > 100 µM (inactive) |  | > 100 µM (inactive)
O=c1c2nc(-c3ccccc3)oc2n(-c2ccccc2)c(=O)n1-c1ccccc1 | 25.8 µM (inactive) | 37.6 µM (inactive) | 25.9 µM (inactive) | 8.18 µM (inactive) | 82.2 µM (inactive) | > 46.5 µM (inactive) | 29.3 µM (inactive) | > 46.5 µM (inactive) | > 46.5 µM (inactive) | 21.4 µM (inactive) | 25.8 µM (inactive) | 18.8 µM (inactive) | 23.3 µM (inactive) | 44.4 µM (inactive) | 19.1 µM (inactive) | 36.2 µM (inactive) | 20.7 µM (inactive) | > 46.5 µM (inactive) | 19.3 µM (inactive)
Cn1c(=O)n(CC(Br)CBr)c(=O)n(CC(Br)CBr)c1=O (centres undefined) | 77.4 µM (inactive) | 40.3 µM (inactive) | 36.6 µM (inactive) | 85.3 µM (inactive) | 71.3 µM (inactive) | 32.5 µM (inactive) | 33.7 µM (inactive) | 28.8 µM (inactive) | 26.3 µM (inactive) | 28 µM (inactive) | 38.5 µM (inactive) | 66.2 µM (inactive) | 58.7 µM (inactive) | 31.8 µM (inactive) | 45 µM (inactive) | 26 µM (inactive) | 75.7 µM (inactive) | 30.9 µM (inactive) | 43.3 µM (inactive)
SC1=Nc2ccccc2-c2nc(-c3cccc(Cl)c3)cc(-c3ccccc3)c2C1 | 2.02 µM (inactive) | 1.75 µM (inactive) | 0.811 µM (active) | 2 µM (inactive) | 5.36 µM (inactive) | 4.86 µM (inactive) | 1.64 µM (inactive) | 3.48 µM (inactive) | 19.6 µM (inactive) | 2.06 µM (inactive) | 3.4 µM (inactive) | 0.347 µM (active) | 1.07 µM (active) | 7.57 µM (inactive) | 3.37 µM (inactive) | 2.08 µM (inactive) | 1.2 µM (inactive) | 2.98 µM (inactive) | 1.19 µM (inactive)
C=C1C(=O)C[C@H]2C(=C)C(=O)O[C@@H]2C2C1CC[C@@]2(C)O (some centres undefined) | > 100 µM (inactive) | 44.4 µM (inactive) | 12.2 µM (inactive) | 16.7 µM (inactive) | 73.3 µM (inactive) | 16.3 µM (inactive) | 25.1 µM (inactive) | 29.7 µM (inactive) | 23.2 µM (inactive) | 12.7 µM (inactive) | 16.1 µM (inactive) | > 10 µM (inactive) | 31.7 µM (inactive) | 30.6 µM (inactive) | > 100 µM (inactive) | 42.6 µM (inactive) | > 100 µM (inactive) | 23 µM (inactive) | 45.6 µM (inactive)
C=CC(CBr)CCC(Br)C(C)(C)Br (centres undefined) | > 10 µM (inactive) | > 10 µM (inactive) | > 10 µM (inactive) | > 10 µM (inactive) | > 10 µM (inactive) | > 10 µM (inactive) | > 10 µM (inactive) | > 10 µM (inactive) | > 10 µM (inactive) | > 10 µM (inactive) | > 10 µM (inactive) | > 10 µM (inactive) | > 10 µM (inactive) | > 10 µM (inactive) | > 10 µM (inactive) | > 10 µM (inactive) | > 10 µM (inactive) | > 10 µM (inactive) | > 10 µM (inactive)
CN1C/C(=C\c2cccs2)C(=O)/C(=C/c2cccs2)C1 | 19.7 µM (inactive) | 21.9 µM (inactive) | 25.9 µM (inactive) | 31.1 µM (inactive) | 28.6 µM (inactive) | 25.1 µM (inactive) | 18.3 µM (inactive) | 15.6 µM (inactive) | 6.59 µM (inactive) | 75.2 µM (inactive) | 29.3 µM (inactive) | 18.7 µM (inactive) | 20 µM (inactive) | 19.2 µM (inactive) | 53.8 µM (inactive) | 21.8 µM (inactive) | 30.5 µM (inactive) | 40.7 µM (inactive) | 15.6 µM (inactive)
